Reference: ChEMBL document CHEMBL2417495, “N-Methylanilide and N-methylbenzamide derivatives as phosphodiesterase 10A (PDE10A) inhibitors” (Bioorg Med Chem, 2013)

Assays:
[1] = target: T1, cAMP and cAMP-inhibited cGMP 3',5'-cyclic phosphodiesterase 10A (Homo sapiens, UniProt Q9Y233); assay: Inhibition of PDE10A (unknown origin)
[2] = target: T1, cAMP and cAMP-inhibited cGMP 3',5'-cyclic phosphodiesterase 10A; assay: Inhibition of PDE10A (unknown origin) at 2 uM
[3] = target: cGMP-inhibited 3',5'-cyclic phosphodiesterase 3A (Homo sapiens) (UniProt Q14432); assay: Inhibition of PDE3A (unknown origin) at 2 uM
Chain of cGMP-inhibited 3',5'-cyclic phosphodiesterase 3A (Homo sapiens) (Q14432 whole entry): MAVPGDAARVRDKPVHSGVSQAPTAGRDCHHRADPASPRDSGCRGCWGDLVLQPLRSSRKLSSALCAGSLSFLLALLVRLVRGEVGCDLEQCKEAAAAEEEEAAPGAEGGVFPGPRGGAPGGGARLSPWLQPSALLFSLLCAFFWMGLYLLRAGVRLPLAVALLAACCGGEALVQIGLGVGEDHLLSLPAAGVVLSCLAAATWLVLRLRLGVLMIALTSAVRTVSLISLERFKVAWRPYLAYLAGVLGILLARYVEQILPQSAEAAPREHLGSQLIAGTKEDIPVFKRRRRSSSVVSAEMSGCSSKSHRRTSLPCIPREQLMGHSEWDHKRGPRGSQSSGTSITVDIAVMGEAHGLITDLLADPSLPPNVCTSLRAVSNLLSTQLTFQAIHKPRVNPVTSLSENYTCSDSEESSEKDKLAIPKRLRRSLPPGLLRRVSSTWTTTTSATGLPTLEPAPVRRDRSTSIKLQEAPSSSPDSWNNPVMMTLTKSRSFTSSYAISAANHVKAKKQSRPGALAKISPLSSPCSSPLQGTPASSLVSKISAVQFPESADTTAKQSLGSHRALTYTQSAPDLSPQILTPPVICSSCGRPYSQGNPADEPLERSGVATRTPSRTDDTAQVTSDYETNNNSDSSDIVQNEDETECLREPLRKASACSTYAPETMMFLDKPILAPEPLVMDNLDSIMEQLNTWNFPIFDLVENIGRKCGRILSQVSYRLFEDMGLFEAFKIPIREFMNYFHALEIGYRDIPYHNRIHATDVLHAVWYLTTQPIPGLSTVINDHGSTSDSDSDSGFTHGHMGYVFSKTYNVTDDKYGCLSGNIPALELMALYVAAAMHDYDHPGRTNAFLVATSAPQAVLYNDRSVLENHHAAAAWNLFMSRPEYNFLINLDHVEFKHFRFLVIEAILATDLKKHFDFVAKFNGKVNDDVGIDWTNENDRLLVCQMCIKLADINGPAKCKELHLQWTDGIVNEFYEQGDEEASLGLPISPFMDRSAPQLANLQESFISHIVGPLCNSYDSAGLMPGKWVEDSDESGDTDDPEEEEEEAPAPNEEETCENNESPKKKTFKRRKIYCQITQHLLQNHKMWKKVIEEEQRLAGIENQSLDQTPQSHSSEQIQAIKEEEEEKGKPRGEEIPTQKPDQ

[4] = system: Liver microsomes; assay: Intrinsic clearance in human liver microsomes; format: ADME, Microsome
[5] = target: cGMP-dependent 3',5'-cyclic phosphodiesterase (Homo sapiens) (UniProt O00408); assay: Inhibition of PDE2 (unknown origin) at 2 uM
Chain of cGMP-dependent 3',5'-cyclic phosphodiesterase (Homo sapiens) (O00408 whole entry): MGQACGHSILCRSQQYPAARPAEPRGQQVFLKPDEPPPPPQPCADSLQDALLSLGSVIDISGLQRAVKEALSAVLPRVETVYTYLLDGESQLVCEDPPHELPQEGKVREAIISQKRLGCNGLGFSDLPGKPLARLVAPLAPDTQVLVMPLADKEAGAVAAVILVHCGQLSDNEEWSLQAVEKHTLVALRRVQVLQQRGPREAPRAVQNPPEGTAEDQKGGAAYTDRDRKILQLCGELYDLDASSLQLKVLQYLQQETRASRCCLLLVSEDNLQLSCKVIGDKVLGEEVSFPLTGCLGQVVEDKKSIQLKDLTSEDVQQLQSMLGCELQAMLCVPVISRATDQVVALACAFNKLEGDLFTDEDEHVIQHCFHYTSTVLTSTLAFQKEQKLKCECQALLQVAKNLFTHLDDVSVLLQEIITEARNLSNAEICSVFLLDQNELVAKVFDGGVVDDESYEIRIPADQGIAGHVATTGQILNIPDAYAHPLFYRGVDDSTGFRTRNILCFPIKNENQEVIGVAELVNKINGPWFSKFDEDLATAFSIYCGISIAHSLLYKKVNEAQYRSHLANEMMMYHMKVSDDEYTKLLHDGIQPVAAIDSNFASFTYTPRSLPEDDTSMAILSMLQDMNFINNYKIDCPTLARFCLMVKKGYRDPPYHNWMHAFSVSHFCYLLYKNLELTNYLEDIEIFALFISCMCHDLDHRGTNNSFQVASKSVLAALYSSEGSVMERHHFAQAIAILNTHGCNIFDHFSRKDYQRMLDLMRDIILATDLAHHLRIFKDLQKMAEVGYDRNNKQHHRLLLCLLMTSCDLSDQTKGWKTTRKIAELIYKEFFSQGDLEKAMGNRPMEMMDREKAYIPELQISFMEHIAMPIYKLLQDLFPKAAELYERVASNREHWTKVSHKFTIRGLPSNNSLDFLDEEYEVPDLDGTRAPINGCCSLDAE

[6] = target: High affinity cGMP-specific 3',5'-cyclic phosphodiesterase 9A (Homo sapiens) (UniProt O76083); assay: Inhibition of PDE9A (unknown origin) at 2 uM
Chain of High affinity cGMP-specific 3',5'-cyclic phosphodiesterase 9A (Homo sapiens) (O76083 whole entry): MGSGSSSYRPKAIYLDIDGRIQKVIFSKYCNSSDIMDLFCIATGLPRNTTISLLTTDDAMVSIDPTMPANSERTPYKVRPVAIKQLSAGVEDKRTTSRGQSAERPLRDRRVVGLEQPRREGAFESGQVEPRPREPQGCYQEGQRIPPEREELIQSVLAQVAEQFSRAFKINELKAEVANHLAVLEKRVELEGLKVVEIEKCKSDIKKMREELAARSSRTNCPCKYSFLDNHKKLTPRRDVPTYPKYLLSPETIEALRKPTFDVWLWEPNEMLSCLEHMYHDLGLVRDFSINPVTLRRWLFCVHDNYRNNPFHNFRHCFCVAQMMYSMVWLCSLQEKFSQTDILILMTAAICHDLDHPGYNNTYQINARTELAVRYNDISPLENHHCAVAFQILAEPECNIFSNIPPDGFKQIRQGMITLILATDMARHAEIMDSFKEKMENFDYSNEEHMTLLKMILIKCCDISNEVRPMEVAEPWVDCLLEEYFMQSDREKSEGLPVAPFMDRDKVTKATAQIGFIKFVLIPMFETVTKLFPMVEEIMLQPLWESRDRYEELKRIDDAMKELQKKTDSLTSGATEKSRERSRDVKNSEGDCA

[7] = target: 3',5'-cyclic-AMP phosphodiesterase 4D (Homo sapiens) (UniProt Q08499); assay: Inhibition of PDE4D (unknown origin) at 2 uM
Chain of 3',5'-cyclic-AMP phosphodiesterase 4D (Homo sapiens) (Q08499 whole entry): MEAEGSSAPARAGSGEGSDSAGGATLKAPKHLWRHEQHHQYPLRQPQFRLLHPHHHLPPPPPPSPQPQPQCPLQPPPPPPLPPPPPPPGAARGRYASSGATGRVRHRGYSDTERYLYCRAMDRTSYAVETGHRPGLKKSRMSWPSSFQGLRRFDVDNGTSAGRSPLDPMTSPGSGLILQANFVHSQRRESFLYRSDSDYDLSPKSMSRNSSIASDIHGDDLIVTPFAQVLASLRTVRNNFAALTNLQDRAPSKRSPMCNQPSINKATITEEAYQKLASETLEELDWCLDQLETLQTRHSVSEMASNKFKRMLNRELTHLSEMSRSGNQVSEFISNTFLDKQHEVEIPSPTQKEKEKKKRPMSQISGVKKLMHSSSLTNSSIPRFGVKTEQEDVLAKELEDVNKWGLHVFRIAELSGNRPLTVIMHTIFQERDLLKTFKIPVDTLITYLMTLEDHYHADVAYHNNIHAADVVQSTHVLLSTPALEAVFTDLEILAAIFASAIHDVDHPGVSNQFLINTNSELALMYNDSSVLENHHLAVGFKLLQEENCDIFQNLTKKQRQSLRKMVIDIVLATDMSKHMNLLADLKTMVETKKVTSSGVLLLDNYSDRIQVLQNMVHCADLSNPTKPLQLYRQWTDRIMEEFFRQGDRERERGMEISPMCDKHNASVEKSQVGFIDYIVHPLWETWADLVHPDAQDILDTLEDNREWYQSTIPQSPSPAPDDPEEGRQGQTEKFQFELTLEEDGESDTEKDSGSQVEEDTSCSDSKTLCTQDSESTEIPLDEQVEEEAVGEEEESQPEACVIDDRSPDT

[8] = species: Homo sapiens; assay: Selectivity ratio of IC50 for PDE (unknown origin) to IC50 for PDE10A (unknown origin)
[9] = species: Rattus norvegicus; assay: Antipsychotic activity in rat assessed as inhibition of amphetamine-stimulated locomotor activity; format: functional
[10] = target: Voltage-gated inwardly rectifying potassium channel KCNH2 (Homo sapiens, UniProt Q12809); assay: Inhibition of human ERG
[11] = Ratio of drug uptake in brain to plasma in rat; format: ADME; conditions: read-out: BPR

T1 sequence (Q9Y233 whole entry): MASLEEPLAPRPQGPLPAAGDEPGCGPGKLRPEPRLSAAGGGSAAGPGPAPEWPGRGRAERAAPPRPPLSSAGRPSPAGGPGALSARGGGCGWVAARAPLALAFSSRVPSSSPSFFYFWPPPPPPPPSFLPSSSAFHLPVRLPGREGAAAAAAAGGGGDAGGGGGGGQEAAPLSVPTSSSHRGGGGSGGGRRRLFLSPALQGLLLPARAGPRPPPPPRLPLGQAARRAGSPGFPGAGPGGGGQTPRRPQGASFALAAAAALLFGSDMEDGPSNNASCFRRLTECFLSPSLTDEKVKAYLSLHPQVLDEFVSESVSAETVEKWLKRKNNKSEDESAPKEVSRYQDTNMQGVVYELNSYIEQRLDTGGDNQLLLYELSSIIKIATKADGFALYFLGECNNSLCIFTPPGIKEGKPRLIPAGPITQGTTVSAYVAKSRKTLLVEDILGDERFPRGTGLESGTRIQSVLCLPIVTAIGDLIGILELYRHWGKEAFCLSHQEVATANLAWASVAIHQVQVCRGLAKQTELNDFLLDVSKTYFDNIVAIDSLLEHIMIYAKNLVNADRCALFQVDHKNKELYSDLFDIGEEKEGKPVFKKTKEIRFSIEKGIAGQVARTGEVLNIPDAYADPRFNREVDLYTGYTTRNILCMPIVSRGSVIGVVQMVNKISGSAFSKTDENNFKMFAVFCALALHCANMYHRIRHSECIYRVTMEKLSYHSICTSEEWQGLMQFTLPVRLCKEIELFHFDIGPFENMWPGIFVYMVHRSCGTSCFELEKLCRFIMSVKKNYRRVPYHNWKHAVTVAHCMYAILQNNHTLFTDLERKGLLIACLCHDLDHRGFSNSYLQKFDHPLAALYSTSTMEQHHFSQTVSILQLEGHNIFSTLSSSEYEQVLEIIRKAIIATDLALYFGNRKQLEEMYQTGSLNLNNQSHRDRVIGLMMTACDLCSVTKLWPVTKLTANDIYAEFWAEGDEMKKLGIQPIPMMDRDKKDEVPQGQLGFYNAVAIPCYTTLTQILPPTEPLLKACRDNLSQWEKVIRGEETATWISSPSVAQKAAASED

| SMILES | IC50 [1] [nM] | inhibition [2] [%] | also measured |
| --- | --- | --- | --- |
| CN(C(=O)c1cc(-c2cccnc2)n[nH]1)c1ccc(OCc2ccc3ccccc3n2)cc1 | 13 | 101 |  |
| CN(C(=O)c1cnc(-c2cccnc2)s1)c1ccc(OCc2ccc3ccccc3n2)cc1 | 87 | 103 |  |
| CN(C(=O)c1cc(-c2ccccn2)n[nH]1)c1ccc(OCc2ccc3ccccc3n2)cc1 | 12 | 100 | inhibition [3]: 0%; CLH [4]: 2.4 L/min; inhibition [5]: 12%; inhibition [6]: 0%; inhibition [7]: 0% |
| CN(C(=O)c1ccncc1)c1ccc(OCc2cn3ccccc3n2)cc1 | 1600 | 88 |  |
| CN(C(=O)c1ccc2ncsc2c1)c1ccc(OCc2nc3ccccc3o2)cc1 | 920 | 98 |  |
| CN(C(=O)c1cc(-c2ccncc2)n[nH]1)c1ccc(OCc2ccc3ccccc3n2)cc1 | 110 | 99 |  |
| CN(C(=O)c1cnc(-c2ccncc2)s1)c1ccc(OCc2ccc3ccccc3n2)cc1 | 88 | 101 |  |
| Cn1cc(-c2ccncc2)c(-c2ccc(OCc3ccc4ccccc4n3)cc2)n1 [MARDEPODECT] |  |  | CLH [4]: 2.2 L/min; ED50 [9]: 1.8 mg/kg |
| CN(C(=O)c1ccc(OCc2ccc3ccccc3n2)cc1)c1ccn2ncnc2c1 | 400 | 100 |  |
| Cc1cccc(COc2ccc(N(C)C(=O)c3ccc4ncsc4c3)cc2)n1 | 1600 | 90 |  |
| CN(C(=O)c1cc(-c2ccccc2)n[nH]1)c1ccc(OCc2ccc3ccccc3n2)cc1 | 24 | 102 |  |
| CN(C(=O)c1ccc2ncsc2c1)c1ccc(OCc2nc3ccccc3n2C)cc1 | 61 | 104 |  |
| CN(C(=O)c1ccccn1)c1ccc(OCc2ccc3ccccc3n2)cc1 |  | 27 |  |
| CN(C(=O)c1ccc2ncsc2c1)c1ccc(OCc2ccc3ccccc3n2)cc1 | 31 | 101 | CLH [4]: 2.2 L/min; inhibition [5]: 1%; inhibition [6]: 5% |

Further lines, with some results ahead:

| IC50 [1] [nM] | inhibition [2] [%] | SMILES | also measured |
| --- | --- | --- | --- |
|  | 33 | O=C(Nc1ccc(OCc2ccc3ccccc3n2)cc1)c1ccncc1 |  |
| 240 | 101 | CN(C(=O)c1ccc(OCc2ccc3ccccc3n2)cc1)c1ccc2ncnn2c1 |  |
| 16 | 105 | CN(C(=O)c1ccc(OCc2ccc3ccccc3n2)cc1)c1ccc2ncsc2c1 | inhibition [3]: 12%; CLH [4]: 6.1 L/min; inhibition [5]: 15%; inhibition [6]: 7%; inhibition [7]: 13% |
| 140 | 101 | CN(C(=O)c1ccc(OCc2ccc3ccccc3n2)cc1)c1ccncc1 |  |
| 460 | 98 | CN(C(=O)c1ccc(-n2ccnc2)cc1)c1ccc(OCc2ccc3ccccc3n2)cc1 |  |
| 660 | 96 | CN(C(=O)c1ccccc1)c1ccc(OCc2ccc3ccccc3n2)cc1 |  |
| 250 | 80 | CN(C(=O)c1ccncc1)c1ccc(OCc2ccc3ccccc3n2)cc1 | inhibition [3]: 16%; CLH [4]: 1.1 L/min; Ratio IC50 [8]: > 50; ED50 [9]: 60 mg/kg; inhibition [5]: 14%; inhibition [6]: 22%; inhibition [7]: 4%; IC50 [10]: > 50000 nM; Kp [11]: 0.6 |
| 750 |  | CCN(C(=O)c1ccncc1)c1ccc(OCc2ccc3ccccc3n2)cc1 |  |
| 130 | 105 | CN(C(=O)c1ccc(OCc2ccc3ccccc3n2)cc1)c1ccc2nccn2c1 |  |
| 93 | 105 | CN(C(=O)c1ccc(OCc2ccc3ccccc3n2)cc1)c1ccc2ncoc2c1 |  |
| 950 | 94 | CN(C(=O)c1ccc(OCc2ccc3ccccc3n2)cc1)c1ccccc1 |  |
| 660 |  | CCCCN(C(=O)c1ccncc1)c1ccc(OCc2ccc3ccccc3n2)cc1 |  |
|  | 62 | CN(C(=O)c1cccnc1)c1ccc(OCc2ccc3ccccc3n2)cc1 |  |
